Data on two molecules can be found in ChEMBL document CHEMBL6103659, “Structural Studies of the Dopamine D4 Receptor Antagonist Sonepiprazole as an Inhibitor of Human Carbonic Anhydrases” (ACS Med Chem Lett, 2025).

Test [1] addresses Carbonic anhydrase 3 (Homo sapiens, UniProt P07451).
Test [2] deals with Carbonic anhydrase 1 (Homo sapiens, UniProt P00915).
Test [3] deals with Carbonic anhydrase 2 (Homo sapiens, UniProt P00918).
The target in test [4] is Carbonic anhydrase 7 (Homo sapiens, UniProt P43166).
Test [5] deals with Carbonic anhydrase 9 (Homo sapiens, UniProt Q16790).
For test [6], the target named is Carbonic anhydrase 12 (Homo sapiens, UniProt O43570).
Chain of Carbonic anhydrase 12 (O43570 whole entry): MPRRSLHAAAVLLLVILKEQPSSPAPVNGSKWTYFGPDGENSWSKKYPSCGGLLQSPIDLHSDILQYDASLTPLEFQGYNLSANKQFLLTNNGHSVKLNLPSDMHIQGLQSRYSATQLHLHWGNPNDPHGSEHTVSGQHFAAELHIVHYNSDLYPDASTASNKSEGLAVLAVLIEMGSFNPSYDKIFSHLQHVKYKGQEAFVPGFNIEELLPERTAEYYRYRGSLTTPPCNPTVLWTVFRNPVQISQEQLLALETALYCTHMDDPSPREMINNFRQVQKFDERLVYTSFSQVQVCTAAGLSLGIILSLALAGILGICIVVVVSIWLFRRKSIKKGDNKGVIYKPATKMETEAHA

Chain of Carbonic anhydrase 3 (P07451 whole entry): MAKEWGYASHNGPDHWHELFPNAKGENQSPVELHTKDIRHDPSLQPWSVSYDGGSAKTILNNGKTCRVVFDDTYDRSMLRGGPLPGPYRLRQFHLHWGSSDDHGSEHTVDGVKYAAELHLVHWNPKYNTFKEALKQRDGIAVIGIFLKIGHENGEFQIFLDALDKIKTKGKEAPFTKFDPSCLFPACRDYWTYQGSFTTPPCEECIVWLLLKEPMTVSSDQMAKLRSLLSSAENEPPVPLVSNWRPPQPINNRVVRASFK
Chain of Carbonic anhydrase 7 (P43166 whole entry): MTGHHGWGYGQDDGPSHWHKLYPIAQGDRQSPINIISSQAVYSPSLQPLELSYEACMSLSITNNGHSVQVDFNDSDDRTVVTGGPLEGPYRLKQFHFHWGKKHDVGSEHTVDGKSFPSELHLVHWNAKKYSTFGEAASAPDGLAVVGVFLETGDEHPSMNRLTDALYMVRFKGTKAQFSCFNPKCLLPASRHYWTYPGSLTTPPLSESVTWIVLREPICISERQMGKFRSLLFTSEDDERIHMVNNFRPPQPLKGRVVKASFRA
Chain of Carbonic anhydrase 1 (P00915 whole entry): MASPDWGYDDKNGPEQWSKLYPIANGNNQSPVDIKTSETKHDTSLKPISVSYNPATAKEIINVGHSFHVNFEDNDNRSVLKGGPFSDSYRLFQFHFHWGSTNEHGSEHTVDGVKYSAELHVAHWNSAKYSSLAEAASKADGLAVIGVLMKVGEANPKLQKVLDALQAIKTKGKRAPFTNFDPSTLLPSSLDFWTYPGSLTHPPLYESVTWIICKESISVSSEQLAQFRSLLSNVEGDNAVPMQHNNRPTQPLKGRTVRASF

A word on the Ki: it is the equilibrium dissociation constant of an inhibitor or competing ligand from its target. A high value points to a looser hold on the target. For `NS(=O)(=O)c1ccc(N2CCN(CC[C@@H]3OCCc4ccccc43)CC2)cc1` [SONEPIPRAZOLE], in test [1], the Ki is more than 10000 nM.
For `C=CCN1CCCC1CNC(=O)c1cc(S(N)(=O)=O)cc(OC)c1OC` (configuration not stated) [VERALIPRIDE], the Ki in test [2] was 2720 nM; in test [3], 406 nM; in test [1] it was more than 10000 nM; in test [4], 978 nM; in test [5] it was 31.1 nM; in test [6], 23.9 nM.
